Measured values from patent US6248309A, “Gums containing antimicrobial agents” (priority 1999, dated 2001).

Columns and labels:
[1] = tested on: Streptococcus sanguis (SS); assay: MIC of individual antimicrobial agents (Example 4); type: cell-based, Streptococcus sanguis ATCC 49295; conditions: Table 18
Text: (§1) The following example illustrates how antimicrobial agents useful in gum compositions of the present invention retard or prevent the growth of dental plaque bacteria present in the oral cavity. In addition, the example illustrates the lowest concentration of various antimicrobial agents that will inhibit visible in vitro growth of a particular bacteria.
(§2) The assay used a microtiter plate to dilute the antimicrobial agent to varying concentrations in order to determine the MIC.
(§3) A bacteria culture was incubated overnight at 37° C. Prior to dilution of the antimicrobial agents as described below, the bacterial culture was spun down at 2000 rpm into a pellet and resuspended in a solution of buffered phosphate. […]
(§4) The 96-well plate was incubated under conditions that varied depending on the particular microorganism. […] Following 48 hours of incubation, the incubated plate was read for microbial growth with a spectraphotometer by optical density (OD). The well containing the lowest dilution achievable with a spectraphotometer reading below 0.05 OD (i.e., no detectable microbial growth) was considered representative for the antimicrobial agent. The MIC for the agent was determined by accounting for the starting stock solution concentration and the resulting dilutions in the 96-well plate. […]

[2] = tested on: Streptococcus sanguis (SS); assay: MIC of agents alone and in two-agent combination (Example 1); type: cell-based, Streptococcus sanguis ATCC 49295; conditions: concentration of chloramphenicol (agent A)
Procedure: (§5) The following example illustrates how the MIC of individual antimicrobial agents that are combined were determined and also illustrates how the MIC of the antimicrobial agents in combination were determined.
(§6) A microtiter plate was used to dilute the antimicrobial agents to varying concentrations in order to determine the MIC of those antimicrobial agents alone and the MIC of the agents when combined.
(§7) A bacterial culture was incubated at 37° C. Prior to the dilution of the antimicrobial agents as described below, the bacterial culture was spun down at 2,000 rpm into a pellet and resuspended in a solution of buffered phosphate. The innoculum was normalized with a spectrophotometer to an optical density at 550 nanometers of between 0.180-0.220 (equivalent to 5.0×10^7 colony forming units, CFU per milliliter). The innoculum was set aside until the completion of the antimicrobial agent dilution. […]
(§8) Following 48 hours of incubation, the incubated plate was read for microbial growth with a spectrophotometer by optical density (OD). The well containing the lowest dilution achievable for each agent with a spectrophotometer reading below 0.05 OD (i.e., no detectable microbial growth) was considered representative for the combination. The MIC for each agent in the combination was determined by accounting for the starting stock solution concentration and the resulting dilutions in the 96-well plate. […]

[3] = tested on: Actinomyces viscosus (AV); assay: as above; type: cell-based, Actinomyces viscosus ATCC 19246; conditions: concentration of chloramphenicol (agent A)
Procedure: as §5, §6, §7, §8

[4] = tested on: Porphyromonas gingivalis (PG); assay: as above; type: cell-based, Porphyromonas gingivalis ATCC 33277; conditions: concentration of chloramphenicol (agent A)
Procedure: as §5, §6, §7, §8

[5] = tested on: Fusobacterium nucleatum (FN); assay: as above; type: cell-based, Fusobacterium nucleatum ATCC 10933; conditions: concentration of chloramphenicol (agent A)
Procedure: as §5, §6, §7, §8

[6] = tested on: Porphyromonas gingivalis (PG); assay: MIC of individual antimicrobial agents (Example 4); type: cell-based, Porphyromonas gingivalis ATCC 33277; conditions: Table 18
Text: as §1, §2, §3, §4

[7] = tested on: Fusobacterium nucleatum (FN); assay: MIC of individual antimicrobial agents (Example 4); type: cell-based, Fusobacterium nucleatum ATCC 10933; conditions: Table 18
Text: as §1, §2, §3, §4

[8] = tested on: Actinomyces viscosus (AV); assay: MIC of individual antimicrobial agents (Example 4); type: cell-based, Actinomyces viscosus ATCC 19246; conditions: Table 18
Text: as §1, §2, §3, §4

[9] = tested on: Streptococcus mutans (SM); assay: MIC of individual antimicrobial agents (Example 4); type: cell-based, Streptococcus mutans ATCC 25175; conditions: Table 18
Text: as §1, §2, §3, §4

[10] = tested on: Streptococcus mutans (SM); assay: MIC of agents alone and in two-agent combination (Example 1); type: cell-based, Streptococcus mutans ATCC 25175; conditions: concentration of chloramphenicol (agent A)
Procedure: as §5, §6, §7, §8

O=C(NC(CO)C(O)c1ccc([N+](=O)[O-])cc1)C(Cl)Cl (stereo not shown) [CR1, 2,2-dichloro-N-[2-hydroxyl-1-(hydroxymethyl)-2-(4-nitrophenyl)ethyl]acetamide]
MIC [1]: 3.1 µg/mL | MIC of Chloramphenicol alone and when combined with Agent B [2]: 3.2 µg/mL | MIC of Chloramphenicol alone and when combined with Agent B [3]: 5.4 µg/mL | MIC of Chloramphenicol alone and when combined with Agent B [4]: 6.9 µg/mL | MIC of Chloramphenicol alone and when combined with Agent B [5]: 1.8 µg/mL | MIC [6]: 6.3 µg/mL | MIC [7]: 3.1 µg/mL | MIC [8]: 3.1 µg/mL | MIC [9]: 3.1 µg/mL | MIC of Chloramphenicol alone and when combined with Agent B [10]: 5.2 µg/mL
